Source: patent US20220304955A1 (Nacuity Pharmaceuticals, Inc., priority 2021, published 2022)
Structures can show the parent of a compound that is named as a salt. Positions of bridges follow the written chain, without caps; N, C: chain ends. Non-standard residues stand in square brackets, D forms with d. Residues, ends and D or L forms follow the SMILES beside them. *: point of attachment. Ileψ(thiazoline)Cys = CC[C@H](C)[C@H](N)C1=N[C@H](C(=O)*)CS1; dOrn = NCCC[C@@H](N)C(=O)O

How the values were obtained:
N27 cells [1] = experiment: Cellular ferroptosis assay, cell viability by MTT; type: cell-based, rat; conditions: for preventing ferroptosis, NAC compared with NACA: 50 μM in media or PBS, erastin 0.1-8 μM, RSL3 3-400 nM or glutamate 3-400 mM, 24 hr; for anti-ferroptotic activity on pretreatment prior to ferroptosis induction: 50 or 500 μM in PBS for 24 hours, then erastin, RSL3 or glutamate for additional 24 hours; for prevention of ferroptosis induced by erastin, RSL3 and glutamate (cell viability): erastin 2 μM, RSL3 100 nM or glutamate 100 mM, 24 hours, added at same time, liproxstatin-1 4-250 nM, NAC, NACA (in water), diNACA (in NMP) 8-500 μM; for anti-ferroptotic activity on post-treatment: erastin, RSL3 or glutamate for 5 hours, then 50 or 500 μM in PBS for additional 19 hours
Method: Materials and Methods. […] Cells were cultured at 37° C. with 5% CO2.

Caenorhabditis elegans = Caenorhabditis elegans Lifespan assay; type: in vivo; conditions: for Median survival: from late L4 larval/young adult stage, 25 °C, strain TJ1060
Method: NAC and NACA were dissolved in sterile water then added to the molten NGM at 55° C. Media containing equivalent vehicle alone (1% v/v DMSO) was used for comparison. 1% v/v DMSO was also added to NAC and NACA plates for consistency, as DMSO itself may affect lifespan. Standard overnight culture of the Escherichia coli strain OP50 was used as the food source. Lifespan data were collected at 25 (±1) ° C. using the temperature sensitive-sterile strain TJ1060 [spe-9(hc88); rrf-3(b26)] as a proxy for wildtype. A developmentally synchronous population was obtained by transferring egg-laying adults to fresh plates at 16° C. for 4 hours. The adults were removed and the plates with eggs then transferred to 25° C. to ensure sterility. After 48 hours at 25° C., when worms were at the late L4 larval/young adult stage, 25-35 nematodes were transferred to fresh plates containing either vehicle control (1% v/v DMSO), 1 mM NAC, 10 mM NAC, 1 mM NACA, 10 mM NACA, 1 mM diNACA, and 10 mM diNACA. All plates were coded to allowing blinding of the experimenter to the treatment regime during scoring. Nematodes were scored for survival at 1 to 2-day intervals and transferred to freshly prepared plates as needed (every 2-4 days). Worms lost not due to death were recorded as censored.
Results. Data was analyzed using GraphPad Prism 9, with survival curves compared using a long-rank (Mantel-Cox) test. P values are given for pair-wise comparisons to the vehicle control population.

C. elegans [2] = experiment: Diethyl maleate (DEM) assay, survival of C. elegans; type: in vivo, Caenorhabditis elegans; conditions: for % alive: then 10 mM DEM, scored at 24 hours
Method: Materials and Methods. Effects of NAC, NACA and diNACA on diethyl maleate (DEM; Sigma-Aldrich)-induced toxicity in C. elegans was evaluated. (10 mM DEM alone conjugates GSH causing 50% depletion of GSH and 50% lethality after 24 hour exposure (Jenkins et al., 2020)). DEM was added to neat DMSO and added to molten NGM at 55° C. to a final concentration of 10 mM DEM and 0.5% v/v DMSO. Plates were seeded with E. coli strain OP50. Data were collected at 25 (±1) ° C. using the temperature sensitive-sterile strain TJ1060. A synchronous population was obtained by transferring egg-laying adults to fresh plates at 16° C. for 2-3 hours. The adults were removed and the plates with eggs then transferred to 25° C. to ensure sterility. After 48 hours at 25° C., when worms were at the late L4/young adult stage, 70 nematodes were transferred to fresh plates containing either vehicle control, 1 mM NAC, 10 mM NAC, 1 mM NACA, 10 mM NACA, 1 mM diNACA, 10 mM diNACA (all with 1.0% v/v DMSO). Worms were aged at 25° C. for a further 4 days and then transferred to DEM plates, 35-45 per plate, two plates per treatment. Survival, determined by touch-provoked movement, was scored at 24 hours after exposure to DEM.

C. elegans [3] = conditions: 10 mM DEM alone, 24 hour exposure; cited from earlier work
N27 cells [4] = conditions: for solvent concentration over which cell viability is reduced: rat, 24 h
Method: Viability of cells treated with water, dimethyl sulfoxide (DMSO) or NMP (0.3-20% v/v) for 24 hours. Data are means±SEM, n=3.
Materials and Methods. […] N27 cells, derived from E12 rat mesencephalic tissue (Merck, Australia), were cultured in RPMI 1640 media (ThermoFisher Scientific) supplemented with 10% fetal calf serum (Bovogen, Australia) and penicillin and streptomycin (ThermoFisher Scientific, Australia). Cells were cultured at 37° C. with 5% CO2. Cellular ferroptosis assays were used to evaluate anti-ferroptotic activity of test articles (Southon et al., 2019). Liproxstatin-1 (lip1) was used as an anti-ferroptotic control. […] Cell viability was measured by 3-[4,5-dimethylthiazol-2-yl]-2,5-diphenyltetrazolium bromide (MTT) assay, absorbance measured at 570 nm using a PowerWave XS microplate spectrophotometer (BioTek Instruments, Winooski, USA), and expressed as a percentage of control cells (Southon et al., 2019).
The toxicity profile of solvents NMP, DMSO and water were evaluated in N27 cells (FIG. 2).

C. elegans [5] = conditions: Drug Age Database listing; cited from earlier work
[6] = humans, oral dose of 600 mg; cited from earlier work

**Q.** For `CC(=O)N[C@@H](CS)C(N)=O`, which “preventing ferroptosis, NAC compared with NACA” value (N27 cells [1]) is on record?
**A.** Its value is “similarly effective at preventing ferroptosis”.

**Q.** And the “anti-ferroptotic activity on pretreatment prior to ferroptosis induction” value (N27 cells [1])?
**A.** Its value is “did not differentiate anti-ferroptotic activity”.

**Q.** And the “prevention of ferroptosis induced by erastin, RSL3 and glutamate (cell viability)” value (N27 cells [1])?
**A.** Its value is “efficacy in the micromolar range”.

**Q.** What about the “anti-ferroptotic activity on post-treatment” value (N27 cells [1]) of the same compound?
**A.** Its value is “did not differentiate anti-ferroptotic activity”.

**Q.** And the increase in lifespan (Caenorhabditis elegans; 1 mM)?
**A.** The increase in lifespan was “minor increase”.

**Q.** And the “Median survival” value (Caenorhabditis elegans; 1 mM in NGM)?
**A.** Its value is 10 days.

**Q.** What about the increase in lifespan (Caenorhabditis elegans; 10 mM) of the same compound?
**A.** The increase in lifespan was “marked increase in lifespan”.

**Q.** What about the “Median survival” value (Caenorhabditis elegans; 10 mM in NGM) of the same compound?
**A.** The value was 16 days.

**Q.** And the “rescue from DEM-induced toxicity” value (C. elegans [2]; 1 mM)?
**A.** The value was “rescue”.

**Q.** And the “% alive” value (C. elegans [2]; 1 mM pre-treatment 4 days)?
**A.** The value was 91%.

**Q.** And the “rescue from DEM-induced toxicity” value (C. elegans [2]; 10 mM)?
**A.** Its value is “rescue”.

**Q.** And the “% alive” value (C. elegans [2]; 10 mM pre-treatment 4 days)?
**A.** Its value is 98%.

**Q.** For `CCOC(=O)/C=C\C(=O)OCC` [DEM, diethyl maleate], which “depletion of GSH” value (C. elegans [3]) is on record?
**A.** The value was 50%.

**Q.** What about the lethality (C. elegans [3]) of the same compound?
**A.** Its lethality is 50%.

**Q.** With `C[S+](C)[O-]` [DMSO, dimethyl sulfoxide] as the compound, how does the “solvent concentration over which cell viability is reduced” value (N27 cells [4]) read?
**A.** The value was “over 1.3%”.

**Q.** For `Clc1cccc(CN=C2Nc3ccccc3NC23CCNCC3)c1` [Lip1, Liproxstatin-1, reference compound], which “prevention of ferroptosis induced by erastin, RSL3 and glutamate (cell viability)” value (N27 cells [1]) is on record?
**A.** The value was “nanomolar efficacy”.

**Q.** What does the source list for `CC(=O)N[C@@H](CS)C(=O)O` [NAC, N-acetylcysteine, reference compound]?
**A.** preventing ferroptosis, NAC compared with NACA (N27 cells [1]): similarly effective at preventing ferroptosis; anti-ferroptotic activity on pretreatment prior to ferroptosis induction (N27 cells [1]): did not differentiate anti-ferroptotic activity; prevention of ferroptosis induced by erastin, RSL3 and glutamate (cell viability) (N27 cells [1]): efficacy in the micromolar range; anti-ferroptotic activity on post-treatment (N27 cells [1]): did not differentiate anti-ferroptotic activity; Median survival (Caenorhabditis elegans; 1 mM in NGM): 10 days; increase in lifespan (Caenorhabditis elegans; 10 mM): minor increase; Median survival (Caenorhabditis elegans; 10 mM in NGM): 10 days; % alive (C. elegans [2]; 1 mM pre-treatment 4 days): 80%; rescue from DEM-induced toxicity (C. elegans [2]; 10 mM): rescue; % alive (C. elegans [2]; 10 mM pre-treatment 4 days): 89%; life extension of C. elegans (C. elegans [5]): 64%; plasma half-life [6]: 2.5 h; time after administration at which no NAC is detectable [6]: 10 to 12 h

**Q.** For `CN1CCCC1=O` [NMP, N-methyl pyrrolidone], which “solvent concentration over which cell viability is reduced” value (N27 cells [4]) is on record?
**A.** Its value is “over 0.3%”.

**Q.** For `O` [Water, water], which “effect of solvent on cell viability” value (N27 cells [4]) is on record?
**A.** Its value is “did not reduce cell viability”.

**Q.** For `CC(=O)Nc1ccc(O)cc1` [acetaminophen], which “life extension of C. elegans” value (C. elegans [5]) is on record?
**A.** The value was 66%.

**Q.** Which “life extension of C. elegans” value (C. elegans [5]) does the source give for `CC[C@H](C)[C@H](N)C1=N[C@H](C(=O)N[C@@H](CC(C)C)C(=O)N[C@H](CCC(=O)O)C(=O)N[C@H](C(=O)N[C@H]2CCCCNC(=O)[C@H](CC(N)=O)NC(=O)[C@@H](CC(=O)O)NC(=O)[C@H](Cc3cnc[nH]3)NC(=O)[C@@H](Cc3ccccc3)NC(=O)[C@H]([C@@H](C)CC)NC(=O)[C@@H](CCCN)NC2=O)[C@@H](C)CC)CS1` [bacitracin] ({Ileψ(thiazoline)Cys}-L[dE]IK[dOrn]I[dF]H[dD]N; lactam 4-C) here?
**A.** Its value is 74%.

**Q.** Which “life extension of C. elegans” value (C. elegans [5]) does the source give for `Cc1ccc2c(c1)sc(-c1ccc(N(C)C)cc1)[n+]2C.[Cl-]` [thioflavin T] here?
**A.** Its value is 78%.
